≈ marks a conversion by molar mass, not a printed value.
Experiments:
Assay type in all cases: functional
Staphylococcus aureus [1] = experiment: Antibacterial activity against methicillin-resistant Staphylococcus aureus N315 assessed as inhibition of bacterial growth by continuous dilution method
Enterococcus faecalis = experiment: Antibacterial activity against Enterococcus faecalis assessed as inhibition of bacterial growth by continuous dilution method
Staphylococcus aureus [2] = experiment: Antibacterial activity against Staphylococcus aureus assessed as inhibition of bacterial growth by continuous dilution method
Staphylococcus aureus [3] = experiment: Antibacterial activity against Staphylococcus aureus ATCC 25923 assessed as inhibition of bacterial growth by continuous dilution method
Staphylococcus aureus [4] = experiment: Antibacterial activity against Staphylococcus aureus ATCC 29213 assessed as inhibition of bacterial growth by continuous dilution method
Klebsiella pneumoniae = experiment: Antibacterial activity against Klebsiella pneumoniae assessed as inhibition of bacterial growth by continuous dilution method
Escherichia coli [5] = experiment: Antibacterial activity against Escherichia coli assessed as inhibition of bacterial growth by continuous dilution method
Pseudomonas aeruginosa [6] = experiment: Antibacterial activity against Pseudomonas aeruginosa assessed as inhibition of bacterial growth by continuous dilution method
Acinetobacter baumannii = experiment: Antibacterial activity against Acinetobacter baumannii assessed as inhibition of bacterial growth by continuous dilution method
Pseudomonas aeruginosa [7] = experiment: Antibacterial activity against Pseudomonas aeruginosa ATCC 27853 assessed as inhibition of bacterial growth by continuous dilution method
Escherichia coli [8] = experiment: Antibacterial activity against Escherichia coli ATCC 25922 assessed as inhibition of bacterial growth by continuous dilution method

Structure (SMILES) | MIC (Staphylococcus aureus [1]) | MIC (Enterococcus faecalis) | MIC (Staphylococcus aureus [2]) | MIC (Staphylococcus aureus [3]) | MIC (Staphylococcus aureus [4]) | MIC (Klebsiella pneumoniae) | MIC (Escherichia coli [5]) | MIC (Pseudomonas aeruginosa [6]) | MIC (Acinetobacter baumannii) | MIC (Pseudomonas aeruginosa [7]) | MIC (Escherichia coli [8])
CCCCO/N=C(/CS(=O)(=O)c1ccc(N)cc1)c1nccs1 | 64 µg/mL (≈ 181 µM) | 16 µg/mL (≈ 45.3 µM) | 32 µg/mL (≈ 90.5 µM) | 32 µg/mL (≈ 90.5 µM) | 64 µg/mL (≈ 181 µM) | 16 µg/mL (≈ 45.3 µM) | 32 µg/mL (≈ 90.5 µM) | 32 µg/mL (≈ 90.5 µM) | 64 µg/mL (≈ 181 µM) | 32 µg/mL (≈ 90.5 µM) | 32 µg/mL (≈ 90.5 µM)
COc1ccc(/C=C(/C(=O)c2nccs2)S(=O)(=O)c2ccc(NC(C)=O)cc2)cc1 | 4 µg/mL (≈ 9.04 µM) | 4 µg/mL (≈ 9.04 µM) | 32 µg/mL (≈ 72.3 µM) | 32 µg/mL (≈ 72.3 µM) | 16 µg/mL (≈ 36.2 µM) | 32 µg/mL (≈ 72.3 µM) | 32 µg/mL (≈ 72.3 µM) | 128 µg/mL (≈ 289 µM) | 128 µg/mL (≈ 289 µM) | 128 µg/mL (≈ 289 µM) | 64 µg/mL (≈ 145 µM)
CC(=O)Nc1ccc(S(=O)(=O)C/C(=N/Nc2ccc(C(=O)O)cc2)c2nccs2)cc1 | 8 µg/mL (≈ 17.4 µM) | 16 µg/mL (≈ 34.9 µM) | 2 µg/mL (≈ 4.36 µM) | 32 µg/mL (≈ 69.8 µM) | 32 µg/mL (≈ 69.8 µM) | 128 µg/mL (≈ 279 µM) | 64 µg/mL (≈ 140 µM) | 128 µg/mL (≈ 279 µM) | 64 µg/mL (≈ 140 µM) | 32 µg/mL (≈ 69.8 µM) | 32 µg/mL (≈ 69.8 µM)
Nc1ccc(S(=O)(=O)C/C(=N/OCc2ccc(Cl)cc2Cl)c2nccs2)cc1 | 64 µg/mL (≈ 140 µM) | 16 µg/mL (≈ 35.1 µM) | 64 µg/mL (≈ 140 µM) | 64 µg/mL (≈ 140 µM) | 64 µg/mL (≈ 140 µM) | 32 µg/mL (≈ 70.1 µM) | 32 µg/mL (≈ 70.1 µM) | 64 µg/mL (≈ 140 µM) | 64 µg/mL (≈ 140 µM) | 16 µg/mL (≈ 35.1 µM) | 16 µg/mL (≈ 35.1 µM)
CCCCCCO/N=C(/CS(=O)(=O)c1ccc(NC(C)=O)cc1)c1nccs1 | 32 µg/mL (≈ 75.6 µM) | 32 µg/mL (≈ 75.6 µM) | 64 µg/mL (≈ 151 µM) | 64 µg/mL (≈ 151 µM) | 128 µg/mL (≈ 302 µM) | 64 µg/mL (≈ 151 µM) | 32 µg/mL (≈ 75.6 µM) | 32 µg/mL (≈ 75.6 µM) | 128 µg/mL (≈ 302 µM) | 32 µg/mL (≈ 75.6 µM) | 8 µg/mL (≈ 18.9 µM)
CCO/N=C(/CS(=O)(=O)c1ccc(NC(C)=O)cc1)c1nccs1 | 64 µg/mL (≈ 174 µM) | 32 µg/mL (≈ 87.1 µM) | 128 µg/mL (≈ 348 µM) | 128 µg/mL (≈ 348 µM) | 64 µg/mL (≈ 174 µM) | 64 µg/mL (≈ 174 µM) | 32 µg/mL (≈ 87.1 µM) | 128 µg/mL (≈ 348 µM) | 256 µg/mL (≈ 697 µM) | 64 µg/mL (≈ 174 µM) | 16 µg/mL (≈ 43.5 µM)
Nc1ccc(S(=O)(=O)C/C(=N/O)c2nccs2)cc1 | 128 µg/mL (≈ 430 µM) | 128 µg/mL (≈ 430 µM) | 128 µg/mL (≈ 430 µM) | 64 µg/mL (≈ 215 µM) | 64 µg/mL (≈ 215 µM) | 64 µg/mL (≈ 215 µM) | 32 µg/mL (≈ 108 µM) | 128 µg/mL (≈ 430 µM) | 256 µg/mL (≈ 861 µM) | 64 µg/mL (≈ 215 µM) | 16 µg/mL (≈ 53.8 µM)
CC(=O)Nc1ccc(S(=O)(=O)/C(=C\c2ccc(C)cc2)C(=O)c2nccs2)cc1 | 128 µg/mL (≈ 300 µM) | 128 µg/mL (≈ 300 µM) | 256 µg/mL (≈ 600 µM) | 256 µg/mL (≈ 600 µM) | 256 µg/mL (≈ 600 µM) | 256 µg/mL (≈ 600 µM) | 256 µg/mL (≈ 600 µM) | 128 µg/mL (≈ 300 µM) | 256 µg/mL (≈ 600 µM) | 128 µg/mL (≈ 300 µM) | 256 µg/mL (≈ 600 µM)
CCO/N=C(/CS(=O)(=O)c1ccc(N)cc1)c1nccs1 | 256 µg/mL (≈ 787 µM) | 64 µg/mL (≈ 197 µM) | 256 µg/mL (≈ 787 µM) | 64 µg/mL (≈ 197 µM) | 64 µg/mL (≈ 197 µM) | 32 µg/mL (≈ 98.3 µM) | 16 µg/mL (≈ 49.2 µM) | 64 µg/mL (≈ 197 µM) | 128 µg/mL (≈ 393 µM) | 32 µg/mL (≈ 98.3 µM) | 32 µg/mL (≈ 98.3 µM)
C=CCO/N=C(/CS(=O)(=O)c1ccc(NC(C)=O)cc1)c1nccs1 | 64 µg/mL (≈ 169 µM) | 32 µg/mL (≈ 84.3 µM) | 128 µg/mL (≈ 337 µM) | 32 µg/mL (≈ 84.3 µM) | 64 µg/mL (≈ 169 µM) | 64 µg/mL (≈ 169 µM) | 64 µg/mL (≈ 169 µM) | 128 µg/mL (≈ 337 µM) | 128 µg/mL (≈ 337 µM) | 64 µg/mL (≈ 169 µM) | 16 µg/mL (≈ 42.2 µM)
CC(=O)Nc1ccc(S(=O)(=O)/C(=C\c2ccc(C#N)cc2)C(=O)c2nccs2)cc1 | 8 µg/mL (≈ 18.3 µM) | 8 µg/mL (≈ 18.3 µM) | 8 µg/mL (≈ 18.3 µM) | 32 µg/mL (≈ 73.1 µM) | 8 µg/mL (≈ 18.3 µM) | 128 µg/mL (≈ 293 µM) | 32 µg/mL (≈ 73.1 µM) | 128 µg/mL (≈ 293 µM) | 128 µg/mL (≈ 293 µM) | 64 µg/mL (≈ 146 µM) | 16 µg/mL (≈ 36.6 µM)
CC(=O)Nc1ccc(S(=O)(=O)C/C(=N/NC(=O)c2ccccc2)c2nccs2)cc1 | 256 µg/mL (≈ 579 µM) | 32 µg/mL (≈ 72.3 µM) | 128 µg/mL (≈ 289 µM) | 32 µg/mL (≈ 72.3 µM) | 256 µg/mL (≈ 579 µM) | 256 µg/mL (≈ 579 µM) | 16 µg/mL (≈ 36.2 µM) | 128 µg/mL (≈ 289 µM) | 256 µg/mL (≈ 579 µM) | 4 µg/mL (≈ 9.04 µM) | 64 µg/mL (≈ 145 µM)
C#CCO/N=C(/CS(=O)(=O)c1ccc(N)cc1)c1nccs1 | 64 µg/mL (≈ 191 µM) | 64 µg/mL (≈ 191 µM) | 64 µg/mL (≈ 191 µM) | 32 µg/mL (≈ 95.4 µM) | 64 µg/mL (≈ 191 µM) | 32 µg/mL (≈ 95.4 µM) | 32 µg/mL (≈ 95.4 µM) | 64 µg/mL (≈ 191 µM) | 64 µg/mL (≈ 191 µM) | 32 µg/mL (≈ 95.4 µM) | 32 µg/mL (≈ 95.4 µM)
CC(=O)Nc1ccc(S(=O)(=O)/C(=C\c2ccc(F)cc2)C(=O)c2nccs2)cc1 | 128 µg/mL (≈ 297 µM) | 128 µg/mL (≈ 297 µM) | 128 µg/mL (≈ 297 µM) | 256 µg/mL (≈ 595 µM) | 128 µg/mL (≈ 297 µM) | 128 µg/mL (≈ 297 µM) | 128 µg/mL (≈ 297 µM) | 256 µg/mL (≈ 595 µM) | 64 µg/mL (≈ 149 µM) | 64 µg/mL (≈ 149 µM) | 64 µg/mL (≈ 149 µM)
CCCCCCCCO/N=C(/CS(=O)(=O)c1ccc(NC(C)=O)cc1)c1nccs1 | 64 µg/mL (≈ 142 µM) | 64 µg/mL (≈ 142 µM) | 128 µg/mL (≈ 283 µM) | 64 µg/mL (≈ 142 µM) | 64 µg/mL (≈ 142 µM) | 64 µg/mL (≈ 142 µM) | 32 µg/mL (≈ 70.9 µM) | 64 µg/mL (≈ 142 µM) | 128 µg/mL (≈ 283 µM) | 64 µg/mL (≈ 142 µM) | 16 µg/mL (≈ 35.4 µM)

Source: ChEMBL document CHEMBL5325403, “Benzenesulfonyl thiazoloimines as unique multitargeting antibacterial agents towards Enterococcus faecalis” (Eur J Med Chem, 2023)
